From patent publication US9770441B1, “Crystalline solid forms of 6-carboxy-2-(3,5-dichlorophenyl)-benzoxazole” (Pfizer Inc., priority 2014, dated 2017)

Experiments:
[1] = hygroscopicity as stated in the description of the solid form; type: physicochemical; conditions: crystalline anhydrous form
[2] = isothermal vapor sorption analysis; type: physicochemical; conditions: up to 90% relative humidity, ambient temperature
Protocol: Form 1 was analyzed via isothermal vapor sorption analysis, which is a gravimetric technique that measures how quickly and how much of a solvent is absorbed by a sample: such as a dry powder absorbing water. It does this by varying the vapor concentration surrounding the sample and measuring the change in mass which this produces.

O=C(O)c1ccc2nc(-c3cc(Cl)cc(Cl)c3)oc2c1 [Form 1, 6-carboxy-2-(3,5-dichlorophenyl)-benzoxazole]
hygroscopicity of the solid form [1]: non-hygroscopic | reversible weight gain [2]: less than 0.25%
